Measured values published in patent publication US20080200403A1, “9A-Carbamoyl and Thiocarbamoyl Azalides with Anti-Inflammatory Activity” (GLAXOSMITHKLINE, priority 2005, published 2008).
Where two headings read alike, the source gives them in different places.

Tests used:
[1] = tested on: IL-6; assay: Inhibition of IL-6 production by stimulated human peripheral blood leukocytes in vitro; type: cell-based; conditions: PBL; for inhibition at 10 µM / inhibition at 50 µM: Homo sapiens, Leukocyte, read-out: Percentage of inhibition of IL-6 production
Outline: (§1)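 Dextran-isolated human PBL (3-5×10^6 per well) in RPMI with 10% FCS were preincubated 2 h at 37 °C with compounds at 50 μM or 10 μM final, then stimulated overnight with 2 μg/mL LPS, 1 μg/mL PMA or 120 μg/mL zymosan. Supernatant cytokines by sandwich ELISA; % inhibition versus stimulated untreated control.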

[2] = tested on: TNF-α; assay: Inhibition of TNF-α production by stimulated human peripheral blood leukocytes in vitro; type: cell-based; conditions: PBL; for inhibition at 10 µM / inhibition at 50 µM: Homo sapiens, Leukocyte, read-out: Percentage of inhibition of TNF-α production
Outline: as §1

[3] = tested on: IL-8; assay: Inhibition of IL-8 production by stimulated human peripheral blood leukocytes in vitro; type: cell-based; conditions: PBL; for inhibition at 10 µM / inhibition at 50 µM: Homo sapiens, Leukocyte, read-out: Percentage of inhibition of IL-8 production
Outline: as §1

[4] = tested on: human peripheral blood mononuclear cells (PBMC); assay: Human T-cell proliferation in vitro (3H-thymidine incorporation); type: cell-based; conditions: for inhibition at 10 µM / inhibition at 50 µM: Homo sapiens, PBMC, read-out: Percentage of inhibition of proliferation of stimulated PBMC
Protocol: Influence of substances at two different concentrations (50 μM and 10 μM) on cell proliferation of human peripheral blood mononuclear cells (PBMC) was assessed.
Heparinized peripheral blood was obtained from healthy donors, and PBMC were isolated by Histopaque 1077 (Sigma, USA) density centrifugation at 400×g for 30 minutes. 5×10^4 cells/well were cultured for 3 days in the RPMI medium as described above, in the presence (positive control) or absence (negative control) of stimulators [PHA (2.5 μg/mL) (Sigma, USA), or both PMA (10 ng/mL) (Sigma, USA) and ionomycin (500 ng/mL) (Calbiochem, USA)], and in the presence of the test compounds, at 37° C. in an atmosphere of 5% CO2 and 90% humidity. The cells were pulsed with 1 μCi of ^3H-thymidine (Amersham, USA) per well during the last 18 h of the culture, and were harvested on the 96-well filter (Packard Bioscience, USA) using a multiple cell harvester (Packard, USA). The incorporation of ^3H-thymidine in activated cells were measured using TopCount NXT (Packard, USA).
Inhibition (as percentage) was calculated using the following formula: % inhibition=(1−(^3H)thymidine incorporation expressed in counts per minute (cpm) in sample/(^3H)thymidine incorporation expressed in cpm in positive control)×100
where positive control refers to stimulated samples, not treated with substances.

[5] = tested on: IL-1α; assay: Inhibition of IL-1 production by stimulated human peripheral blood leukocytes in vitro; type: cell-based; conditions: PBL; for inhibition at 10 µM / inhibition at 50 µM: Homo sapiens, Leukocyte, read-out: Percentage of inhibition of IL-1α production
[6] = tested on: TNF-α; assay: Lipopolysaccharide induced TNF-α production in Balb/cJ mice; type: in vivo; conditions: LPS stimulated Balb/cJ mice, 10 mg/kg b.w. intraperitoneally, plasma 90 min after challenge
Protocol: Male Balb/cJ mice (Iffa Credo, France), 18 animals weighing 25-33 g were randomly grouped (7 animals were treated with the test compounds, 7 were in positive control and 4 in negative control). Substances, as well as vehiculum [0.125% carboxymethyl-cellulose (Sigma, USA)], were administered intraperitoneally. Substances were administered in the dose of 10 mg/kg b.w. Administered volume was 10 mL/kg b.w. Thirty minutes later, lipopolysaccharide (LPS) (Sigma, USA) solution in sterile saline at concentration and volume of 25 μg/0.2 mL of sterile saline/mouse was intraperitoneally administered to each animal except those in negative control. Ninety minutes after the challenge all animals were bled to death by puncturing a carotis communis. Plasma concentration of TNF-α was determined by sandwich ELISA, using capture and detection antibodies (R&D, USA) according to manufacturer's recommendations. Results are presented in the following table as % of inhibition of TNF-α production in comparison to positive control (challenged but not treated animals).

[7] = zymosan stimulated, compound 10 μM
[8] = zymosan stimulated, compound 50 μM
[9] = PMA + ionomycin stimulated, compound 10 μM
[10] = PMA + ionomycin stimulated, compound 50 μM

CC[C@H]1OC(=O)[C@H](C)[C@@H](O[C@H]2C[C@@](C)(OC)[C@@H](O)[C@H](C)O2)[C@H](C)[C@@H](O[C@@H]2O[C@H](C)C[C@H](N(C)C)[C@H]2O)[C@](C)(O)C[C@@H](C)CN(C(=S)Nc2cccc(C(F)(F)F)c2)[C@H](C)[C@@H](O)[C@]1(C)O [Compound 4]
inhibition at 10 µM ([1]; LPS stimulated, compound 10 μM): 38%
inhibition at 50 µM ([1]; LPS stimulated, compound 50 μM): 100%
inhibition at 10 µM [1, 7]: 0%
inhibition at 50 µM [1, 8]: 100%
inhibition at 10 µM ([2]; LPS stimulated, compound 10 μM): 39%
inhibition at 50 µM ([2]; LPS stimulated, compound 50 μM): 100%
inhibition at 10 µM ([2]; PMA stimulated, compound 10 μM): 50%
inhibition at 50 µM ([2]; PMA stimulated, compound 50 μM): 100%
inhibition at 10 µM [2, 7]: 36%
inhibition at 50 µM [2, 8]: 97%
inhibition at 10 µM ([3]; LPS stimulated, compound 10 μM): 41%
inhibition at 50 µM ([3]; LPS stimulated, compound 50 μM): 100%
inhibition at 10 µM ([3]; PMA stimulated, compound 10 μM): 52%
inhibition at 50 µM ([3]; PMA stimulated, compound 50 μM): 100%
inhibition at 10 µM [3, 7]: 0%
inhibition at 50 µM [3, 8]: 52%
inhibition at 10 µM ([4]; PHA stimulated, compound 10 μM): 30%
inhibition at 50 µM ([4]; PHA stimulated, compound 50 μM): 102%
inhibition at 10 µM [4, 9]: 50%
inhibition at 50 µM [4, 10]: 100%
inhibition at 10 µM ([5]; LPS stimulated, compound 10 μM): 74%
inhibition at 50 µM ([5]; LPS stimulated, compound 50 μM): 82%
inhibition at 10 µM ([5]; PMA stimulated, compound 10 μM): 54%
inhibition at 50 µM ([5]; PMA stimulated, compound 50 μM): 92%
inhibition at 10 µM [5, 7]: 60%
inhibition at 50 µM [5, 8]: 13%

CCC1OC(=O)C(C)C(O)C(C)C(OC2OC(C)CC(N(C)C)C2O)C(C)(O)CC(C)CN(C(=S)NCc2ccccc2)C(C)C(O)C1(C)O (centres unmarked) [Compound 1]
Percentage of inhibition of IL-6 production ([1]; LPS stimulated, compound 10 μM): 4%
Percentage of inhibition of IL-6 production ([1]; LPS stimulated, compound 50 μM): 22%
Percentage of inhibition of IL-6 production ([1]; PMA stimulated, compound 10 μM): 22%
Percentage of inhibition of IL-6 production ([1]; PMA stimulated, compound 50 μM): 21%
Percentage of inhibition of IL-6 production [1, 7]: 23%
Percentage of inhibition of IL-6 production [1, 8]: 59%
Percentage of inhibition of TNF-α production ([2]; LPS stimulated, compound 10 μM): 0%
Percentage of inhibition of TNF-α production ([2]; LPS stimulated, compound 50 μM): 33%
Percentage of inhibition of TNF-α production ([2]; PMA stimulated, compound 10 μM): 2%
Percentage of inhibition of TNF-α production ([2]; PMA stimulated, compound 50 μM): 37%
Percentage of inhibition of TNF-α production [2, 7]: 34%
Percentage of inhibition of TNF-α production [2, 8]: 72%
Percentage of inhibition of IL-8 production ([3]; LPS stimulated, compound 10 μM): 40%
Percentage of inhibition of IL-8 production ([3]; LPS stimulated, compound 50 μM): 0%
Percentage of inhibition of IL-8 production ([3]; PMA stimulated, compound 10 μM): 4%
Percentage of inhibition of IL-8 production ([3]; PMA stimulated, compound 50 μM): 0%
Percentage of inhibition of IL-8 production [3, 7]: 12%
Percentage of inhibition of IL-8 production [3, 8]: 79%
Percentage of inhibition of proliferation of stimulated PBMC ([4]; PHA stimulated, compound 10 μM): 21%
Percentage of inhibition of proliferation of stimulated PBMC ([4]; PHA stimulated, compound 50 μM): 95%
Percentage of inhibition of proliferation of stimulated PBMC [4, 9]: 10%
Percentage of inhibition of proliferation of stimulated PBMC [4, 10]: 52%
TNF-α (% inhibition) [6]: 31%
Percentage of inhibition of IL-1α production ([5]; LPS stimulated, compound 10 μM): 52%
Percentage of inhibition of IL-1α production ([5]; LPS stimulated, compound 50 μM): 78%
Percentage of inhibition of IL-1α production ([5]; PMA stimulated, compound 10 μM): 38%
Percentage of inhibition of IL-1α production ([5]; PMA stimulated, compound 50 μM): 47%
Percentage of inhibition of IL-1α production [5, 7]: 65%
Percentage of inhibition of IL-1α production [5, 8]: 57%

CC[C@H]1OC(=O)[C@H](C)[C@@H](O[C@H]2C[C@@](C)(OC)[C@@H](O)[C@H](C)O2)[C@H](C)[C@@H](O[C@@H]2O[C@H](C)C[C@H](N(C)C)[C@H]2O)[C@](C)(O)C[C@@H](C)CN(C(=S)Nc2ccccc2F)[C@H](C)[C@@H](O)[C@]1(C)O [Compound 5]
inhibition at 10 µM ([1]; LPS stimulated, compound 10 μM): 64%
inhibition at 50 µM ([1]; LPS stimulated, compound 50 μM): 72%
inhibition at 10 µM ([1]; PMA stimulated, compound 10 μM): 44%
inhibition at 50 µM ([1]; PMA stimulated, compound 50 μM): 60%
inhibition at 10 µM [1, 7]: 66%
inhibition at 50 µM [1, 8]: 88%
inhibition at 10 µM ([2]; LPS stimulated, compound 10 μM): 19%
inhibition at 50 µM ([2]; LPS stimulated, compound 50 μM): 45%
inhibition at 10 µM ([2]; PMA stimulated, compound 10 μM): 62%
inhibition at 50 µM ([2]; PMA stimulated, compound 50 μM): 85%
inhibition at 10 µM [2, 7]: 49%
inhibition at 50 µM [2, 8]: 76%
inhibition at 10 µM ([3]; LPS stimulated, compound 10 μM): 16%
inhibition at 50 µM ([3]; LPS stimulated, compound 50 μM): 42%
inhibition at 10 µM ([3]; PMA stimulated, compound 10 μM): 23%
inhibition at 50 µM ([3]; PMA stimulated, compound 50 μM): 69%
inhibition at 10 µM [3, 7]: 20%
inhibition at 50 µM [3, 8]: 46%
inhibition at 10 µM ([4]; PHA stimulated, compound 10 μM): 0%
inhibition at 50 µM ([4]; PHA stimulated, compound 50 μM): 72%
inhibition at 10 µM [4, 9]: 20%
inhibition at 50 µM [4, 10]: 87%
TNF-α (% inhibition) [6]: 50%
inhibition at 10 µM ([5]; LPS stimulated, compound 10 μM): 41%
inhibition at 50 µM ([5]; LPS stimulated, compound 50 μM): 10%
inhibition at 10 µM ([5]; PMA stimulated, compound 10 μM): 14%
inhibition at 50 µM ([5]; PMA stimulated, compound 50 μM): 14%
inhibition at 10 µM [5, 7]: 27%
inhibition at 50 µM [5, 8]: 41%

CCC1OC(=O)C(C)C(OC2CC(C)(OC)C(O)C(C)O2)C(C)C(OC2OC(C)CC(N(C)C)C2O)C(C)(O)CC(C)CN(C(=S)Nc2cccc(F)c2)C(C)C(O)C1(C)O (centres unmarked) [Compound 3]
Percentage of inhibition of IL-6 production ([1]; LPS stimulated, compound 10 μM): 13%
Percentage of inhibition of IL-6 production ([1]; LPS stimulated, compound 50 μM): 79%
Percentage of inhibition of IL-6 production ([1]; PMA stimulated, compound 10 μM): 24%
Percentage of inhibition of IL-6 production ([1]; PMA stimulated, compound 50 μM): 9%
Percentage of inhibition of IL-6 production [1, 7]: 59%
Percentage of inhibition of IL-6 production [1, 8]: 81%
Percentage of inhibition of TNF-α production ([2]; LPS stimulated, compound 10 μM): 45%
Percentage of inhibition of TNF-α production ([2]; LPS stimulated, compound 50 μM): 74%
Percentage of inhibition of TNF-α production ([2]; PMA stimulated, compound 10 μM): 37%
Percentage of inhibition of TNF-α production ([2]; PMA stimulated, compound 50 μM): 75%
Percentage of inhibition of TNF-α production [2, 7]: 71%
Percentage of inhibition of TNF-α production [2, 8]: 94%
Percentage of inhibition of IL-8 production ([3]; LPS stimulated, compound 10 μM): 38%
Percentage of inhibition of IL-8 production ([3]; LPS stimulated, compound 50 μM): 81%
Percentage of inhibition of IL-8 production ([3]; PMA stimulated, compound 10 μM): 61%
Percentage of inhibition of IL-8 production ([3]; PMA stimulated, compound 50 μM): 47%
Percentage of inhibition of IL-8 production [3, 7]: 40%
Percentage of inhibition of IL-8 production [3, 8]: 88%
Percentage of inhibition of proliferation of stimulated PBMC ([4]; PHA stimulated, compound 10 μM): 26%
Percentage of inhibition of proliferation of stimulated PBMC ([4]; PHA stimulated, compound 50 μM): 100%
Percentage of inhibition of proliferation of stimulated PBMC [4, 9]: 23%
Percentage of inhibition of proliferation of stimulated PBMC [4, 10]: 92%
TNF-α (% inhibition) [6]: 29%
Percentage of inhibition of IL-1α production ([5]; LPS stimulated, compound 10 μM): 52%
Percentage of inhibition of IL-1α production ([5]; LPS stimulated, compound 50 μM): 30%
Percentage of inhibition of IL-1α production ([5]; PMA stimulated, compound 10 μM): 4%
Percentage of inhibition of IL-1α production ([5]; PMA stimulated, compound 50 μM): 0%
Percentage of inhibition of IL-1α production [5, 7]: 75%
Percentage of inhibition of IL-1α production [5, 8]: 74%
